Data reported in BindingDB's records for patent WO2023019327 (Mindset Pharma, 2023).

These molecules were tested against 5-hydroxytryptamine receptor 2A (Homo sapiens, UniProt P28223) (assay: FLIPR Calcium 6 Assay).
Chain of 5-hydroxytryptamine receptor 2A (P28223 whole entry): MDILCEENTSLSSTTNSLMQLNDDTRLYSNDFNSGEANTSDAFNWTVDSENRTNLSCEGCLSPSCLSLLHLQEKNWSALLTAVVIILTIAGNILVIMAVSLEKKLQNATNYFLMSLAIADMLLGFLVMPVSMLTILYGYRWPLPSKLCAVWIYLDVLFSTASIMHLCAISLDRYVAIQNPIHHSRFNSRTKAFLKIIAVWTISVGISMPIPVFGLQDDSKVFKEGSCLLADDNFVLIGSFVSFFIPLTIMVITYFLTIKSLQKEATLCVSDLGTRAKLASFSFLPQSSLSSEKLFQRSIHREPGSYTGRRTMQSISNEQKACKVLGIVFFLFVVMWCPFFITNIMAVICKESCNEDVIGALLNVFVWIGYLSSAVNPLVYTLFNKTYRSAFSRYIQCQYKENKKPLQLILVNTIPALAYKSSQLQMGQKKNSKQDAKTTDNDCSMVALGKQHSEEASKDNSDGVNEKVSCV
Procedure: The dye is diluted with assay buffer (20mM HEPES in 1x HBSS, PH7.4); Probenecid was added to the final concentration of 5 mM; […]. Vortexed vigorously for 1-2 minutes. Medium is removed from cell plate by flicking the cell plate on towel papers. […] The cell plate is placed on plate shaker, the plate was agitated at 600rpm for 2 minutes. The plate is incubated at 37°C for 2 hours followed by additional 15-minute incubation at 25°C. 3*compound in assay buffer is prepared: a. Reference compounds are diluted to required concentration with DMSO. The compounds were added to a 384-well compound plate; b. Serial dilutions are performed; c. […] Add […] assay buffer to the compound plate; f.
`CN(C)CCc1c[nH]c2ccccc12` [2-(1H-indol-3-yl)-N,N-dimethylethanamine] was tested, and the EC50 was < 10 µM. With `CCCCC/C=C\C/C=C\CCCCCCCC(=O)N(C)CCc1c[nH]c2ccccc12` [WO2023019367, Compound I-1] the EC50 was > 30 µM. For `CCCCC/C=C\C/C=C\CCCCCCCC(=O)N(C)CCc1c[nH]c2ccc(OC)cc12` [WO2023019367, Compound I-21], the EC50 was > 30 µM. In the case of `CCCCC/C=C\C/C=C\CCCCCCCC(=O)N1CCCC1Cc1c[nH]c2ccccc12` (centres undefined) [WO2023019367, Compound I-46], the EC50 is reported as > 30 µM. `CCCCC/C=C\C/C=C\CCCCCCCC(=O)N1CCCC1Cc1c[nH]c2ccc(OC)cc12` (centres undefined) [WO2023019367, Compound I-55] was tested, and the EC50 was > 30 µM. For `CCCCC/C=C\C/C=C\CCCCCCCC(=O)N1CCC(c2c[nH]c3ccc(OC)cc23)C1` (centres undefined) [WO2023019367, Compound I-81], the EC50 was > 30 µM. With `CCCCC/C=C\C/C=C\CCCCCCCC(=O)N1CCC(c2c[nH]c3ccccc23)C1` (centres undefined) [WO2023019367, Compound I-84] the EC50 was > 30 µM. `CCCCC/C=C\C/C=C\CCCCCCCC(=O)N1CCC(c2c[nH]c3ccccc23)CC1` [WO2023019367, Compound I-87] was tested, and the EC50 was > 30 µM. For `CCCCC/C=C\C/C=C\CCCCCCCC(=O)N1CCC(c2c[nH]c3ccc(OC)cc23)CC1` [WO2023019367, Compound I-88], the EC50 was > 30 µM.
